Read-outs that look alike come from different tables or passages of the source.
How the values were obtained:
His6-TEV-PPARγ-(234-505) = biological target: T1, His6-TEV-PPARγ-(234-505) (Homo sapiens, UniProt P37231); assay: TR-FRET Assay to Measure Co-R Peptide Recruitment to PPARγ; format: biochemical; conditions: Co-R peptide (SMRT-ID2) recruitment; top final concentration 20 μM; read-out: TR-FRET i-Ag; AC50
T1 construct: The His6-TEV-PPARγ-(234-505) protein for assay was expressed and purified; TEV cleavage site (N); made in house
T1 sequence (P37231 234-505): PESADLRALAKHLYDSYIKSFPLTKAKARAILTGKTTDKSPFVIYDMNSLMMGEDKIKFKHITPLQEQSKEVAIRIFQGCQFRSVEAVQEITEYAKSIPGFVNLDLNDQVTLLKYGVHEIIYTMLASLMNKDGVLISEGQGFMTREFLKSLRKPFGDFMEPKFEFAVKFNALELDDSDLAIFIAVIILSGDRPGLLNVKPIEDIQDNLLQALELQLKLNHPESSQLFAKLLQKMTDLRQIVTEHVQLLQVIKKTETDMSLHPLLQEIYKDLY
How it was run: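 Corepressor recruitment is measured by adding terbium-labeled anti-His antibody and FITC SMRT-ID2 peptide, at 5 and 200 nM final, after a 20-minute room-temperature protein–compound incubation. After one further hour, signal is converted to percent response between DMSO and 500 nM T0070907 wells.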

UM-UC-9 engineered cells = assay: Cell proliferation / short-term viability assay, CellTiter-Glo 144 h; format: cell-based, human; conditions: read-out: CTGlo 144 h UMUC9.5, G150
How it was run: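 Viability read by CellTiter-Glo 2.0 luminescence at day 7 versus DMSO-vehicle wells and a T0 plate measured on day 0. Cells: UM-UC-9 engineered assay-ready stocks, 500 cells/well in high-glucose DMEM with 10% FBS, 37° C, 5% CO2.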

Row | AC50 (His6-TEV-PPARγ-(234-505)) [nM] | SMILES | IC50 (UM-UC-9 engineered cells; Homo sapiens, UM-UC-9, 144 h) [nM] | IC50 (UM-UC-9 engineered cells) [nM]
1 | 273 | COc1cc(-c2cc(C(=O)N3CCC(C(=O)NCc4cccc(C(F)(F)F)n4)CC3)n[nH]2)c(Cl)cn1 [Example 129, 1-(5-(5-chloro-2-methoxypyridin-4-yl)-1H-pyrazole-3-carbonyl)-N-((6 (trifluoromethyl)pyridin-2-yl)methyl)piperidine-4-carboxamide] | 1020 | 
2 | 1640 | CO[C@]1(C(F)(F)F)CC[C@H](NC(=O)[C@@H]2CCN(C(=O)c3cc(-c4cc(C)ncc4F)[nH]n3)C3(CC3)C2)CC1 (single isomer, unassigned) [Example 293-B] | 3240 | 
3 | 88.1 | COc1cc(-c2cc(C(=O)N3CC[C@H](C(=O)NC(C)c4cn5c(n4)COCC5)CC34CC4)n[nH]2)c(F)cn1 (single isomer, unassigned) [Example 415-A] |  | 304
4 | 15900 | COc1cc(-c2cc(C(=O)N3CC[C@@H](C(=O)NCc4cccc(Cl)c4)CC34CCC4)n[nH]2)c(Cl)cn1 (single isomer, unassigned) [Example 256-B] | 3520 | 
5 | 3.3 | COc1cc(-c2cc(C(=O)N3CC[C@H](C(=O)NCc4cnccc4C(F)(F)F)CC34CC4)n[nH]2)c(F)cn1 [Example 516, (S)-4-(5-(5-fluoro-2-methoxypyridin-4-yl)-1H-pyrazole-3-carbonyl)-N-((4-(trifluoromethyl)pyridin-3-yl)methyl)-4-azaspiro[2.5]octane-7-carboxamide] | 10 | 
6 | 298 | COc1cc(-c2cc(C(=O)N3CC[C@H](C(=O)NC4CCC(N)(C(F)(F)F)CC4)CC34CC4)n[nH]2)c(F)cn1 (single isomer, unassigned) [Example 399-A] | 176 | 
7 | 7 | COc1cc(-c2cc(C(=O)N3CC[C@H](C(=O)NCc4ccncc4C(F)(F)F)CC34CC4)[nH]n2)c(F)cn1 [Example 525, (S)-4-(3-(5-fluoro-2-methoxypyridin-4-yl)-1H-pyrazole-5-carbonyl)-N-((3-(trifluoromethyl)pyridin-4-yl)methyl)-4-azaspiro[2.5]octane-7-carboxamide] | 19 | 
8 | 347 | COc1cc(-c2cc(C(=O)N3CC[C@H](C(=O)NC4C5CN(C6COC6)CC54)CC34CC4)n[nH]2)c(F)cn1 (stereo partly drawn) [Example 429, (7S)-4-(5-(5-fluoro-2-methoxypyridin-4-yl)-1H-pyrazole-3-carbonyl)-N-(3-(oxetan-3-yl)-3-azabicyclo[3.1.0]hexan-6-yl)-4-azaspiro[2.5]octane-7-carboxamide] | 1040 | 
9 | 256 | COc1cc(-c2cc(C(=O)N3CC[C@H](C(=O)NC4CCC5(CCCN5CC(C)(F)F)CC4)CC34CC4)n[nH]2)c(F)cn1 (stereo partly drawn) [Example 351, (S)—N-(1-(2,2-difluoropropyl)-1-azaspiro[4.5]decan-8-yl)-4-(5-(5-fluoro-2-methoxypyridin-4-yl)-1H-pyrazole-3-carbonyl)-41-azaspiro[2.5]octane-7-carboxamide] | 450 | 
10 | 10.3 | Cc1cc(-c2cc(C(=O)N3CC[C@H](C(=O)NCc4ncccc4C4CC4)CC34CC4)[nH]n2)c(F)cn1 (racemic) [Example 506, (S)—N-((3-cyclopropylpyridin-2-yl)methyl)-4-(3-(5-fluoro-2-methylpyridin-4-yl)-1H-pyrazole-5-carbonyl)-4-azaspiro[2.5]octane-7-carboxamide and (R)—N-((3-cyclopropylpyridin-2-yl)methyl)-4-(3-(5-fluoro-2-methylpyridin-4-yl)-1H-pyrazole-5-carbonyl)-4-azaspiro[2.5]octane-7-carboxamide] | 20.6 | 
11 | 5.2 | COc1cc(-c2cc(C(=O)N3CC[C@H](C(=O)N[C@H]4CC[C@@](O)(C(F)(F)F)CC4)CC34CCC4)n[nH]2)c(F)cn1 (racemic) [Example 486, (S)-5-(5-(5-fluoro-2-methoxypyridin-4-yl)-1H-pyrazole-3-carbonyl)-N-((1r,4S)-4-hydroxy-4-(trifluoromethyl)cyclohexyl)-5-azaspiro[3.5]nonane-8-carboxamide and (R)-5-(5-(5-fluoro-2-methoxypyridin-4-yl)-1H-pyrazole-3-carbonyl)-N-((1r,4R)-4-hydroxy-4-(trifluoromethyl)cyclohexyl)-5-azaspiro[3.5]nonane-8-carboxamide] | 44.5 | 

Row | SMILES | AC50 (His6-TEV-PPARγ-(234-505)) [nM] | IC50 (UM-UC-9 engineered cells; Homo sapiens, UM-UC-9, 144 h) [nM] | IC50 (UM-UC-9 engineered cells) [nM]
12 | COc1cc(-c2cc(C(=O)N3CCC(C(=O)NCC4CCc5[nH]nc(C)c5C4)CC34CC4)n[nH]2)c(F)cn1 (mixture of isomers) [Example 382, (S)-4-(5-(5-fluoro-2-methoxypyridin-4-yl)-1H-pyrazole-3-carbonyl)-N—(((S)-3-methyl-4,5,6,7-tetrahydro-1H-indazol-5-yl)methyl)-4-azaspiro[2.5]octane-7-carboxamide and (S)-4-(5-(5-fluoro-2-methoxypyridin-4-yl)-1H-pyrazole-3-carbonyl)-N—(((R)-3-methyl-4,5,6,7-tetrahydro-1H-indazol-5-yl)methyl)-4-azaspiro[2.5]octane-7-carboxamide] | 4 |  | 10
13 | COc1cc(-c2cc(C(=O)N3CCC(C(=O)NC4CCCn5cc(C(F)(F)F)nc54)CC34CC4)n[nH]2)c(F)cn1 (mixture of isomers) [Example 502, (S)-4-(5-(5-fluoro-2-methoxypyridin-4-yl)-1H-pyrazole-3-carbonyl)-N—((S)-2-(trifluoromethyl)-5,6,7,8-tetrahydroimidazo[1,2-a]pyridin-8-yl)-4-azaspiro[2.5]octane-7-carboxamide and (S)-4-(5-(5-fluoro-2-methoxypyridin-4-yl)-1H-pyrazole-3-carbonyl)-N—((R)-2-(trifluoromethyl)-5,6,7,8-tetrahydroimidazo[1,2-a]pyridin-8-yl)-4-azaspiro[2.5]octane-7-carboxamide] | 11.8 |  | 50.6
14 | COc1cc(-c2cc(C(=O)N3[C@@H]4CC[C@H]3C[C@H](C(=O)NCc3ncc(F)cc3Cl)C4)n[nH]2)c(F)cn1 [Example 384, (1R,3s,5S)—N-((3-chloro-5-fluoropyridin-2-yl)methyl)-8-(5-(5-fluoro-2-methoxypyridin-4-yl)-1H-pyrazole-3-carbonyl)-8-azabicyclo[3.2.1]octane-3-carboxamide] | 15.2 | 82.1 | 
15 | COc1cc(-c2cc(C(=O)N3CCC(C(=O)NC4C(C)(C)C(N5CCC(F)(F)C5)C4(C)C)CC34CC4)n[nH]2)c(F)cn1 (mixture of isomers) [Example 378, (S)—N-((1s,3R)-3-(3,3-difluoropyrrolidin-1-yl)-2,2,4,4-tetramethylcyclobutyl)-4-(5-(5-fluoro-2-methoxypyridin-4-yl)-1H-pyrazole-3-carbonyl)-4-azaspiro[2.5]octane-7-carboxamide and (S)—N-((1r,3S)-3-(3,3-difluoropyrrolidin-1-yl)-2,2,4,4-tetramethylcyclobutyl)-4-(5-(5-fluoro-2-methoxypyridin-4-yl)-1H-pyrazole-3-carbonyl)-4-azaspiro[2.5]octane-7-carboxamide] | 130 |  | 224
16 | CCc1cc(-c2cc(C(=O)N3CCC(C(=O)NCc4ncc(F)cc4Cl)CC34CC4)n[nH]2)c(F)cn1 (single isomer, unassigned) [Example 483-A] | 216 |  | 1520
